Measured values reported in PubChem BioAssay (NCI).
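Assay format: 96-well plates, 48-hour exposure. Definition used: TGI = concentration required for complete inhibition of growth.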

Columns and labels:
Assay in all cases: NCI tumour cell line growth inhibition, 48 h
786-0 renal = test system: 786-0 renal
A498 renal = test system: A498 renal
A549 NSCLC = test system: A549 NSCLC
ACHN renal = test system: ACHN renal
BT-549 breast = test system: BT-549 breast
CAKI-1 renal = test system: CAKI-1 renal
CCRF-CEM leukemia = test system: CCRF-CEM leukemia
COLO 205 colon = test system: COLO 205 colon
DU-145 prostate = test system: DU-145 prostate
EKVX NSCLC = test system: EKVX NSCLC
HCT-116 colon = test system: HCT-116 colon
HCT-15 colon = test system: HCT-15 colon
HL-60(TB) leukemia = test system: HL-60(TB) leukemia
HOP-62 NSCLC = test system: HOP-62 NSCLC
HOP-92 NSCLC = test system: HOP-92 NSCLC
HT29 colon = test system: HT29 colon
IGROV1 ovarian = test system: IGROV1 ovarian
K-562 leukemia = test system: K-562 leukemia
KM12 colon = test system: KM12 colon
LOX IMVI melanoma = test system: LOX IMVI melanoma
M14 melanoma = test system: M14 melanoma
MALME-3M melanoma = test system: MALME-3M melanoma
MCF7 breast = test system: MCF7 breast
MDA-MB-435 = test system: MDA-MB-435
MDA-N = test system: MDA-N
MOLT-4 leukemia = test system: MOLT-4 leukemia
NCI-H226 lung = test system: NCI-H226 lung
NCI-H23 lung = test system: NCI-H23 lung
NCI-H522 lung = test system: NCI-H522 lung
NCI/ADR-RES ovarian = test system: NCI/ADR-RES ovarian
OVCAR-3 ovarian = test system: OVCAR-3 ovarian
OVCAR-4 ovarian = test system: OVCAR-4 ovarian
OVCAR-5 ovarian = test system: OVCAR-5 ovarian
OVCAR-8 ovarian = test system: OVCAR-8 ovarian
PC-3 prostate = test system: PC-3 prostate
RPMI-8226 leukemia = test system: RPMI-8226 leukemia
RXF 393 renal = test system: RXF 393 renal
SF-268 CNS = test system: SF-268 CNS
SF-295 CNS = test system: SF-295 CNS
SF-539 CNS = test system: SF-539 CNS
SK-MEL-2 melanoma = test system: SK-MEL-2 melanoma
SK-MEL-28 melanoma = test system: SK-MEL-28 melanoma
SK-MEL-5 melanoma = test system: SK-MEL-5 melanoma
SK-OV-3 ovarian = test system: SK-OV-3 ovarian
SN12C renal = test system: SN12C renal
SNB-19 CNS = test system: SNB-19 CNS
SNB-75 CNS = test system: SNB-75 CNS
SR leukemia = test system: SR leukemia
SW-620 colon = test system: SW-620 colon
T-47D breast = test system: T-47D breast
UACC-62 melanoma = test system: UACC-62 melanoma
UO-31 renal = test system: UO-31 renal
HCC-2998 colon = test system: HCC-2998 colon
HS 578T breast = test system: HS 578T breast
MDA-MB-231 breast = test system: MDA-MB-231 breast
NCI-H460 lung = test system: NCI-H460 lung
TK-10 renal = test system: TK-10 renal
U251 CNS = test system: U251 CNS
UACC-257 melanoma = test system: UACC-257 melanoma

## O=C(NNC(=O)c1c(Cl)c(Cl)c(Cl)c(Cl)c1-c1nc2ccccc2[nH]1)c1ccc(Cl)cc1
786-0 renal
  TGI: > 100 µM
A498 renal
  TGI: > 100 µM
A549 NSCLC
  TGI: > 100 µM
ACHN renal
  TGI: > 100 µM
BT-549 breast
  TGI: > 100 µM
CAKI-1 renal
  TGI: > 100 µM
CCRF-CEM leukemia
  TGI: 67.9 µM
COLO 205 colon
  TGI: > 100 µM
DU-145 prostate
  TGI: > 100 µM
EKVX NSCLC
  TGI: > 100 µM
HCT-116 colon
  TGI: > 100 µM
HCT-15 colon
  TGI: > 100 µM
HL-60(TB) leukemia
  TGI: > 100 µM
HOP-62 NSCLC
  TGI: > 100 µM
HOP-92 NSCLC
  TGI: 84.7 µM
HT29 colon
  TGI: > 100 µM
IGROV1 ovarian
  TGI: > 100 µM
K-562 leukemia
  TGI: > 100 µM
KM12 colon
  TGI: > 100 µM
LOX IMVI melanoma
  TGI: > 100 µM
M14 melanoma
  TGI: > 100 µM
MALME-3M melanoma
  TGI: > 100 µM
MCF7 breast
  TGI: > 100 µM
MDA-MB-435
  TGI: 69.8 µM
MDA-N
  TGI: 53.4 µM
MOLT-4 leukemia
  TGI: > 100 µM
NCI-H226 lung
  TGI: > 100 µM
NCI-H23 lung
  TGI: > 100 µM
NCI-H522 lung
  TGI: > 100 µM
NCI/ADR-RES ovarian
  TGI: > 100 µM
OVCAR-3 ovarian
  TGI: > 100 µM
OVCAR-4 ovarian
  TGI: > 100 µM
OVCAR-5 ovarian
  TGI: > 100 µM
OVCAR-8 ovarian
  TGI: > 100 µM
PC-3 prostate
  TGI: > 100 µM
RPMI-8226 leukemia
  TGI: 98.5 µM
RXF 393 renal
  TGI: > 100 µM
SF-268 CNS
  TGI: > 100 µM
SF-295 CNS
  TGI: > 100 µM
SF-539 CNS
  TGI: > 100 µM
SK-MEL-2 melanoma
  TGI: > 100 µM
SK-MEL-28 melanoma
  TGI: > 100 µM
SK-MEL-5 melanoma
  TGI: > 100 µM
SK-OV-3 ovarian
  TGI: > 100 µM
SN12C renal
  TGI: > 100 µM
SNB-19 CNS
  TGI: > 100 µM
SNB-75 CNS
  TGI: > 100 µM
SR leukemia
  TGI: > 100 µM
SW-620 colon
  TGI: > 100 µM
T-47D breast
  TGI: 93.5 µM
UACC-62 melanoma
  TGI: > 100 µM
UO-31 renal
  TGI: > 100 µM

## N#Cc1c2ccc([N+](=O)[O-])cc2c(=O)n2c1sc1ccccc12
786-0 renal
  TGI: > 100 µM
A498 renal
  TGI: 56.4 µM
A549 NSCLC
  TGI: 28.5 µM
ACHN renal
  TGI: > 100 µM
BT-549 breast
  TGI: > 100 µM
CAKI-1 renal
  TGI: > 100 µM
CCRF-CEM leukemia
  TGI: 34.4 µM
COLO 205 colon
  TGI: 37.7 µM
DU-145 prostate
  TGI: > 100 µM
HCC-2998 colon
  TGI: 38.7 µM
HCT-116 colon
  TGI: 38.8 µM
HCT-15 colon
  TGI: > 100 µM
HL-60(TB) leukemia
  TGI: 66.1 µM
HOP-92 NSCLC
  TGI: 41.3 µM
HS 578T breast
  TGI: > 100 µM
HT29 colon
  TGI: > 100 µM
K-562 leukemia
  TGI: 29.5 µM
KM12 colon
  TGI: > 100 µM
LOX IMVI melanoma
  TGI: > 100 µM
MDA-MB-231 breast
  TGI: 49.2 µM
MDA-MB-435
  TGI: > 100 µM
MDA-N
  TGI: > 100 µM
NCI-H226 lung
  TGI: 47.5 µM
NCI-H23 lung
  TGI: 43 µM
NCI-H460 lung
  TGI: > 100 µM
NCI/ADR-RES ovarian
  TGI: 66.3 µM
OVCAR-4 ovarian
  TGI: 98.8 µM
OVCAR-8 ovarian
  TGI: > 100 µM
PC-3 prostate
  TGI: 43.9 µM
RPMI-8226 leukemia
  TGI: 40.5 µM
SF-268 CNS
  TGI: > 100 µM
SK-MEL-2 melanoma
  TGI: 53.6 µM
SK-MEL-28 melanoma
  TGI: > 100 µM
SK-MEL-5 melanoma
  TGI: > 100 µM
SN12C renal
  TGI: > 100 µM
SNB-19 CNS
  TGI: 36.9 µM
SNB-75 CNS
  TGI: > 100 µM
SR leukemia
  TGI: 24.4 µM
SW-620 colon
  TGI: > 100 µM
T-47D breast
  TGI: 71.4 µM
TK-10 renal
  TGI: 55.8 µM
U251 CNS
  TGI: 95.4 µM
UACC-257 melanoma
  TGI: > 100 µM
UACC-62 melanoma
  TGI: > 100 µM
UO-31 renal
  TGI: 72.7 µM
